Assay results published in the NIST ThermoML archive (doi:10.1016/j.jct.2008.12.011).

Key:
[1] = mn = molality of the nth substance listed, in mol/kg; details: 101 kPa, Liquid, Vibrating tube method
[2] = cn = amount concentration of the nth substance listed, in mol/dm3; details: 101.3 kPa, Liquid, Vibrating tube method

O=S(=O)(O)CC(O)CNC(CO)(CO)CO (stereo unspecified) + O
mass density [kg/m3], [1]
Details	298.15 K	303.15 K	310.15 K	318.15 K	323.15 K	328.15 K
m1 = 0.0629	1003.59	1002.16	999.78	996.62	994.41	992.05
m1 = 0.123	1009.62	1008.14	1005.72	1002.52	1000.3	997.92
m1 = 0.1921	1016.37	1014.86	1012.39	1009.15	1006.89	1004.5
m1 = 0.4659	1041.93	1040.26	1037.6	1034.18	1031.71	1028.8
m1 = 0.7644	1069.04	1066.83	1063.04	1059.95	1056.86	1054.93

O=S(=O)(O)CCCNC(CO)(CO)CO [3-[tris(hydroxymethyl)methylamino]-1-propanesulfonic acid] + O
mass density [kg/m3], [1]
Details	m1 = 0.5011	m1 = 0.8957	m1 = 1.224	m1 = 1.793	m1 = 2.213	m1 = 2.423	m1 = 2.803
298.15 K	1046.07	1064.95	1084.21	1117.87	1140.59	1152.07	1170.75
303.15 K	1044.13	1062.96	1082.18	1115.68	1138.38	1149.81	1168.43
310.15 K	1041.22	1059.95	1079.15	1112.62	1135.28	1146.62	1165.22
318.15 K	1037.23	1055.92	1075.09	1108.55	1131.19	1142.49	1161.04
323.15 K	1034.92	1053.59	1072.68	1106.08	1128.7	1139.98	1158.52
328.15 K	1032.67	1051.25	1070.31	1103.67	1126.12	1137.32	1155.87

[Br-].[K+] [potassium bromide] + O
mass density [kg/m3], [2]
Details	c1 = 1	c1 = 1.5	c1 = 2	c1 = 2.5	c1 = 3	c1 = 3.5	c1 = 4
298.15 K	–	1119.52	–	1199.54	1239.34	1279.04	–
303.15 K	1078.68	1117.57	1160.04	1197.23	1236.89	1276.29	1320.56
308.15 K	1075.81	1114.62	1156.73	1193.88	1233.52	1272.28	1316.47
313.15 K	1072.09	1110.71	1152.65	1189.67	1229.2	1267.53	1311.63
318.15 K	1066.6	1106.96	1149.76	1186.74	1226.19	1264.46	1308.52
323.15 K	1063.02	1102.44	1144.45	1182.53	1222.18	1260.51	1305.31
